Data as given in US20090186907A1, “Pyrazinones As Cellular Proliferation Inhibitors” (E.I. DuPont De Nemours and Company, priority 2006, published 2009).

Experiments:
[1] = system: neuroblastoma (N1E115) cells; experiment: Assay for inhibition of cell proliferation (MTT), neuroblastoma cells; assay type: cell-based, mouse; conditions: for IC50: neuroblastoma (N1E115) cells, MTT; for N1E115 Ratio (paclitaxel/compound): ratio of paclitaxel IC50 to compound IC50, N1E115 cells
Method: (§1) Human rabdomyosarcoma (RD) and mouse neuroblastoma (N1E115) cell lines were obtained from the American Type Culture Collection (ATCC, Rockville, Md.). The RD cells were grown in Dulbecco's modified eagle medium (DMEM) supplemented with 4 mM glutamine, containing 10% fetal bovine serum (ATCC #30-2020) and supplemented with 1% penicillin and 1% streptomycin. When confluent, the cells were maintained by passage (about once per week) until needed. The N1E115 line was also cultured in DMEM with 4 mM glutamine containing 10% newborn calf serum (Gibco, Grand Island, N.Y.) and likewise maintained.
(§2) The proliferation of rhabdomyosarcoma cells was determined using a cell proliferation assay kit based on the formation of insoluble formazan crystals from 3-(4,5-dimethylthiazol-2-yl)-2,5-diphenyltetrazolium bromide (MTT). The rhabdomyosarcoma cells were cultured to a density of 10^5 cells per mL. The cell culture (100 μL) was dispensed into wells of a 96-well plate to 10^4 cells per well. The plate was incubated at 37° C. for 3 h until the cells firmly attached to the well surfaces.
(§3) A second 96-well round bottom plate was made up containing the test compounds, serially diluted to cover the concentration range of interest using the DMEM medium plus antibiotics. The final concentration of DMSO in which the compounds were initially dissolved was maintained at a constant 0.5% in each well and the volume of the compounds in the plate was 220 μL. Following the 3 h incubation the medium was removed from the plate containing the cells and replaced with 200 μL of the solutions containing the compounds. The cells were incubated for a further 96 h before the assessment of growth inhibition using MTT.
(§4) The cells were left bathing in 100 μL of the saline solution to which was added 100 μL of MTT in saline (12 mM). Incubation was continued for 4 h at 37° C. to produce the blue formazan color which was quantified by optical density measurements at 570 nm. Background correction of all test wells was performed by subtraction of the yellow MTT solution color measured at 570 nm in cell-free wells. The data were normalized to solvent only control wells.

[2] = system: rhabdomyosarcoma (RD) cells; experiment: Assay for inhibition of cell proliferation (MTT), rhabdomyosarcoma cells; assay type: cell-based, human; conditions: for IC50: rhabdomyosarcoma (RD) cells, MTT, 96 h incubation; for RD Ratio (paclitaxel/compound): ratio of paclitaxel IC50 to compound IC50, RD cells
Method: as §1, §2, §3, §4

Compound	IC50 ([1]; Mus musculus, N1E-115) [nM]	IC50 ([2]; Homo sapiens) [nM]	IC50 [1] [nM]	IC50 [2] [nM]	N1E115 Ratio (paclitaxel/compound) [1]	RD Ratio (paclitaxel/compound) [2]
CC[C@H](C)Cn1c(-c2c(F)cc(OCCCN(C)C)cc2F)c(Cl)nc(-n2ccc(C)n2)c1=O [Compound 498, 5-chloro-6-[4-[3-(dimethylamino)propoxy]-2,6-difluorophenyl]-1-[(2S)-2-methylbutyl]-3-(3-methyl-1H-pyrazol-1-yl)-2(1H)-pyrazinone]	14	3.8	–	–	6.29	4.47
CC(Cn1c(-c2c(F)cc(OCCCN(C)C)cc2F)c(Cl)nc(-n2cccn2)c1=O)C(F)(F)F (centres unmarked) [Compound 485, 5-chloro-6-[4-[3-(dimethylamino)propoxy]-2,6-difluorophenyl]-3-(1H-pyrazol-1-yl)-1-(3,3,3-trifluoro-2-methylpropyl)-2(1H)-pyrazinone]	151	27.5	–	–	0.58	0.62
O=c1c(-n2cccn2)nc(Cl)c(-c2c(F)cccc2F)n1Cc1ccc(F)cc1 [Compound 272]	–	–	70	70	1.26	0.24
O=c1c(-n2cccn2)nc(Cl)c(-c2c(F)cc(F)cc2F)n1-c1cccc(F)c1 [Compound 324]	–	–	147	50	0.60	0.34
CNCCCOc1cc(F)c(-c2c(Cl)nc(-n3ccc(C)n3)c(=O)n2CC(C)C)c(F)c1 [Compound 496]	–	–	90	43	0.98	0.40
CC[C@H](C)Cn1c(-c2c(F)cc(OCCCN(C)C)cc2F)c(Cl)nc(-n2cccn2)c1=O [Compound 482, 5-chloro-6-[4-[3-(dimethylamino)propoxy]-2,6-difluorophenyl]-1-[(2S)-2-methylbutyl]-3-(1H-pyrazol-1-yl)-2(1H)-pyrazinone]	2.6	1.5	–	–	33.85	11.33
CC(C)Cn1c(-c2c(F)cc(OCCCN(C)C)cc2F)c(Cl)nc(-n2cccn2)c1=O [Compound 495]	–	–	353	35	0.25	0.49
CC[C@H](C)Cn1c(-c2c(F)cc(OC)cc2F)c(Cl)nc(-n2cccn2)c1=O [Compound 457, 5-Chloro-1-[(2S)-2-methylbutyl)-3-(1H-pyrazol-1-yl)-6-(2,6-difluoro-4-methoxyphenyl)-2(1H)-pyrazinone]	39	1.1	–	–	2.26	15.45

Continued by falling IC50 [1], values first:

IC50 ([1]; Mus musculus, N1E-115) [nM]	IC50 ([2]; Homo sapiens) [nM]	IC50 [1] [nM]	IC50 [2] [nM]	Compound	N1E115 Ratio (paclitaxel/compound) [1]	RD Ratio (paclitaxel/compound) [2]
–	–	62	57	CC[C@H](C)Cn1c(-c2c(F)cc(OC(C)=O)cc2F)c(Cl)nc(-n2cccn2)c1=O [Compound 501]	1.42	0.30
–	–	60	40	CCC(C)Cn1c(-c2c(F)cc(F)cc2F)c(Cl)nc(C(N)=O)c1=O (centres unmarked) [Compound 415]	1.47	0.43
–	–	59	1670	CCCCn1c(-c2c(F)cc(F)cc2F)c(Cl)nc(-c2ccccn2)c1=O [Compound 240]	1.49	0.01
–	–	16	2	CNCCCOc1cc(F)c(-c2c(Cl)nc(-n3cccn3)c(=O)n2CC(C)C)c(F)c1.Cl [Compound 500]	5.50	8.50
–	–	16	3.3	CNCCCOc1cc(F)c(-c2c(Cl)nc(-n3cccn3)c(=O)n2-c2cccc(F)c2)c(F)c1.Cl [Compound 492]	5.50	5.15
–	–	12	10	CC[C@H](C)Cn1c(-c2c(F)cc(OCCCN(C)C(C)=O)cc2F)c(Cl)nc(-n2cccn2)c1=O [Compound 499]	7.33	1.70
